Assay: molar heat capacity at constant pressure; xn = mol fraction of the nth substance listed
Settings: 100 kPa, Liquid, Small sample (50 mg) DSC

CCCCn1cc[n+](C)c1C.F[B-](F)(F)F [1-butyl-2,3-dimethylimidazolium tetrafluoroborate] + CCCCn1cc[n+](C)c1.F[B-](F)(F)F
molar heat capacity at constant pressure [J/K/mol]
Settings | 293.15 K | 298.15 K | 303.15 K | 308.15 K
x1 = 0.0944 | 372.33 | 374.56 | 376.3 | 378.14
x1 = 0.1139 | 374.5 | 376.61 | 378.27 | 379.93
x1 = 0.1685 | 380.51 | 382.42 | 383.87 | 385.43
x1 = 0.1964 | 383.54 | 385.39 | 386.73 | 388.21
x1 = 0.2219 | 386.3 | 388.04 | 389.27 | 390.78
x1 = 0.2761 | 391.8 | 393.45 | 394.59 | 396.01
x1 = 0.325 | 396.42 | 397.97 | 399.09 | 400.41
x1 = 0.3616 | 399.58 | 401.14 | 402.27 | 403.61
x1 = 0.4192 | 404.04 | 405.54 | 406.68 | 408.07
x1 = 0.4769 | 407.66 | 409.23 | 410.42 | 411.83
x1 = 0.5228 | 410.01 | 411.58 | 412.83 | 414.29
x1 = 0.5749 | 412.12 | 413.7 | 415.09 | 416.68
x1 = 0.6325 | 413.66 | 415.36 | 416.86 | 418.94
x1 = 0.6877 | 414.45 | 416.32 | 418.24 | 420.31
x1 = 0.7386 | 414.74 | 416.82 | 419.32 | 421.29
x1 = 0.7922 | 414.58 | 416.97 | 419.35 | 421.84
x1 = 0.8479 | 414.36 | 416.75 | 419.41 | 422.19
x1 = 0.8832 | 413.81 | 416.53 | 419.16 | 421.93
x1 = 1 | 413.03 | 416.01 | 418.84 | 421.7

CCCCn1cc[n+](C)c1C.F[B-](F)(F)F [1-butyl-2,3-dimethylimidazolium tetrafluoroborate] + CCn1cc[n+](C)c1.F[B-](F)(F)F
molar heat capacity at constant pressure [J/K/mol]
Settings | 293.15 K | 298.15 K | 303.15 K | 308.15 K
x1 = 0.1129 | 319.45 | 321.79 | 324.44 | 327.05
x1 = 0.1657 | 325.94 | 328.52 | 331.39 | 334.26
x1 = 0.2189 | 331.85 | 334.58 | 337.61 | 340.64
x1 = 0.2743 | 337.42 | 340.23 | 343.39 | 346.51
x1 = 0.3272 | 342.26 | 345.15 | 348.38 | 351.58
x1 = 0.3729 | 346.15 | 349.09 | 352.37 | 355.65
x1 = 0.4382 | 351.36 | 354.4 | 357.74 | 361.09
x1 = 0.4917 | 355.44 | 358.6 | 362.01 | 365.39
x1 = 0.5242 | 357.91 | 361.14 | 364.6 | 368.01
x1 = 0.5687 | 361.32 | 364.66 | 368.19 | 371.64
x1 = 0.6042 | 364.11 | 367.55 | 371.14 | 374.62
x1 = 0.6468 | 367.63 | 371.19 | 374.82 | 378.34
x1 = 0.6931 | 371.7 | 375.37 | 379.1 | 382.63
x1 = 0.7244 | 374.62 | 378.4 | 382.14 | 385.71
x1 = 0.785 | 380.94 | 384.83 | 388.57 | 392.14
x1 = 0.8149 | 384.44 | 388.32 | 392.05 | 395.57
x1 = 0.8633 | 390.63 | 394.43 | 398.1 | 401.56
x1 = 0.9107 | 397.48 | 401.14 | 404.65 | 407.96
x1 = 1 | 413.03 | 416.01 | 418.84 | 421.7

CCn1cc[n+](C)c1.F[B-](F)(F)F [1-ethyl-3-methylimidazolium tetrafluoroborate] + CCCCn1cc[n+](C)c1.F[B-](F)(F)F
molar heat capacity at constant pressure [J/K/mol]
Settings | 293.15 K | 298.15 K | 303.15 K | 308.15 K
x2 = 0 | 303.2 | 304.53 | 306.29 | 308.03
x2 = 0.0731 | 314.45 | 315.32 | 316.58 | 318.02
x2 = 0.1164 | 321.05 | 322.12 | 323.51 | 324.76
x2 = 0.1692 | 328.75 | 329.72 | 330.85 | 332.16
x2 = 0.2144 | 335.06 | 336 | 337.17 | 338.49
x2 = 0.2672 | 341.92 | 342.87 | 344.05 | 345.42
x2 = 0.3259 | 348.89 | 349.85 | 351.13 | 352.54
x2 = 0.3827 | 354.65 | 355.77 | 357.13 | 358.55
x2 = 0.4365 | 359.23 | 360.56 | 362.07 | 363.61
x2 = 0.4722 | 361.72 | 363.22 | 364.73 | 366.24
x2 = 0.535 | 365.27 | 367.01 | 368.62 | 370.2
x2 = 0.5968 | 367.7 | 369.31 | 370.93 | 372.58
x2 = 0.6379 | 368.54 | 370.31 | 371.89 | 373.53
x2 = 0.6857 | 369.02 | 370.78 | 372.53 | 374.23
x2 = 0.7446 | 369.21 | 371.07 | 372.68 | 374.41
x2 = 0.7732 | 368.94 | 370.9 | 372.67 | 374.4
x2 = 0.8293 | 368.08 | 370.08 | 371.76 | 373.59
x2 = 0.876 | 367.14 | 369.26 | 371.02 | 372.8
x2 = 0.9253 | 365.44 | 367.47 | 369.72 | 371.83
